Data: ChEMBL document CHEMBL1201862, “PubChem BioAssay data set” (2004)
The source made the active and inactive calls.

Columns and labels:
[1] = Luminescence Cell-Based Dose Confirmation HTS to Identify Inhibitors of Polyadenylation.; type: functional
Galanin receptor type 2 = Galanin receptor type 2 (Homo sapiens, UniProt O43603); assay: Dose Response cell-based high-throughput screening assay to identify agonists of galanin receptor 2 (GALR2). [Related pubchem assays: 864 ]; type: functional
[2] = microbe, parasite or virus in culture; type: functional; details: Mycobacterium tuberculosis
[3] = target: Aryl hydrocarbon receptor (Homo sapiens, UniProt P35869); assay: Luminescence-based cell-based high throughput dose response assay for activators of the Aryl Hydrocarbon Receptor (AHR). [Related pubchem assays: 2796 (Primary screen (AHR activators in singlicate)), 2845 (Confirmation screen (AHR activators in triplicate)), 434939 (Counterscreen (PXR activators in triplicate)), 2804 (Summary (AHR activators))]; type: ADME
Chain of Aryl hydrocarbon receptor (P35869 whole entry): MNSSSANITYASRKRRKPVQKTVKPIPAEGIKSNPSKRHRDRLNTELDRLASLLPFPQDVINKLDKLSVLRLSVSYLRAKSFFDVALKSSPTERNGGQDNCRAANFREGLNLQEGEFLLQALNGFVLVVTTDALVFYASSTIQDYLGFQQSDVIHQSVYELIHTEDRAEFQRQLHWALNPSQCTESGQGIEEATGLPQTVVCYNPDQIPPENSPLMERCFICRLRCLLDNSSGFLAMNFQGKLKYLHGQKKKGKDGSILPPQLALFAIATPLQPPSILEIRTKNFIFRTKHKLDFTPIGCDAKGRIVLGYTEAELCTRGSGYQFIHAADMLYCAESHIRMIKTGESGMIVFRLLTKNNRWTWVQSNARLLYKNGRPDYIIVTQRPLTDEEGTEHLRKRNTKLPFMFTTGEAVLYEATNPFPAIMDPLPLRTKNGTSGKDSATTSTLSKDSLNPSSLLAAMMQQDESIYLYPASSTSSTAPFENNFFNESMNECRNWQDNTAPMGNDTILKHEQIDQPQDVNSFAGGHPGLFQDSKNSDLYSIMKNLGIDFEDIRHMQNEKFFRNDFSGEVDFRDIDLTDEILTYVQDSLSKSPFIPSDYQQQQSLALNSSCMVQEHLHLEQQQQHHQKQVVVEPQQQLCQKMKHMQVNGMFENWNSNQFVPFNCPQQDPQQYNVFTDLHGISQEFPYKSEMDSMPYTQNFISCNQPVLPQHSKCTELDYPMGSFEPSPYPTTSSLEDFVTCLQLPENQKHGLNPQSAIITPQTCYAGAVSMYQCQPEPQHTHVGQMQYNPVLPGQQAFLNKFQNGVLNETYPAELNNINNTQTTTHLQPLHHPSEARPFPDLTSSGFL

[4] = THP-1 cell cytotoxicity, dose response, cytotoxicity control for non-replicating M. tuberculosis project (AID 489025); type: functional
[5] = Vero E6 cell cytotoxicity, dose response, cytotoxicity control for non-replicating M. tuberculosis project, secondary assay (AID 492998); type: functional, VeroE6; details: Vero C1008
cells = type: functional
[6] = target: Induced myeloid leukemia cell differentiation protein Mcl-1 (Homo sapiens, UniProt Q07820); assay: blockers of MCL1 binding to BIM peptide – biochemical, fluorescence polarization, BIM-BH3 peptide, 1536-well, dose response (AID 2217)
Chain of Induced myeloid leukemia cell differentiation protein Mcl-1 (Q07820 whole entry): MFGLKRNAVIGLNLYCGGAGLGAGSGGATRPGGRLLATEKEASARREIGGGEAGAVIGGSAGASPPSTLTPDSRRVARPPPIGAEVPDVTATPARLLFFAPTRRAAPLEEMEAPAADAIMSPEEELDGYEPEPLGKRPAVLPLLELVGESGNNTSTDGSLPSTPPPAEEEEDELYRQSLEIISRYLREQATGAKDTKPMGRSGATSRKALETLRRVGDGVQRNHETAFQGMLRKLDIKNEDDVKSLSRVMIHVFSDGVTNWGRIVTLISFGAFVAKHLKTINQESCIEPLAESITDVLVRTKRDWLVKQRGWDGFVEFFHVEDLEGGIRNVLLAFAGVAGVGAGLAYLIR

Bcl-2-like protein 1 = Bcl-2-like protein 1 (Homo sapiens, UniProt Q07817); assay: blockers of BCLXL peptide binding – biochemical, fluorescence polarization, 1536-well, selectivity assay for MCL1 inhibitor project, dose response (AID 2218)
Caspase-6 = target: T1, Caspase-6 (Homo sapiens, UniProt P55212); assay: inhibition of CASP6 peptide cleavage – biochemical, VEID-R110 fluorescence, cherry-pick, dose response (AID 720632)
T1 sequence (P55212 whole entry): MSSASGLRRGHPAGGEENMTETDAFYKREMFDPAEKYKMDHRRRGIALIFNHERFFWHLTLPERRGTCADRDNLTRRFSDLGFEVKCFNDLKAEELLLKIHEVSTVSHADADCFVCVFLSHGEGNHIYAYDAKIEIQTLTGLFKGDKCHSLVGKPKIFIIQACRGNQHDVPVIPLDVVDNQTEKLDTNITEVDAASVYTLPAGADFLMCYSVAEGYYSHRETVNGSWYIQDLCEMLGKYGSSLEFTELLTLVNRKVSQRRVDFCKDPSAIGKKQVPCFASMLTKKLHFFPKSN

[7] = target: Diphosphomevalonate decarboxylase (Streptococcus pneumoniae serotype 2 (strain D39 / NCTC 7466), UniProt Q9FD53); assay: diphosphomevalonate decarboxylase inhibitor confirmation – biochemical, cuvette format, coupled NADH fluorescence (AID 1028); type: functional
Chain of Diphosphomevalonate decarboxylase (Q9FD53 whole entry): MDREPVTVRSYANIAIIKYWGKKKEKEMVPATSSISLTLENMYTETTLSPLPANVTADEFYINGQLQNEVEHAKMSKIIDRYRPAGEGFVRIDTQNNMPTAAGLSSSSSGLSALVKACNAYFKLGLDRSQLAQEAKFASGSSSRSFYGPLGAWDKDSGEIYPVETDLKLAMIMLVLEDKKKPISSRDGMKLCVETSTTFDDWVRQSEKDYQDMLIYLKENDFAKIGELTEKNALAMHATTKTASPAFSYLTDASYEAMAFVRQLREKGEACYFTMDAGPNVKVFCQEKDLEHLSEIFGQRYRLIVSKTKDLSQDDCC

[8] = target: Ubiquitin carboxyl-terminal hydrolase BAP1 (Homo sapiens, UniProt Q92560); assay: inhibition of BAP1 ubiquitin hydrolase activity – biochemical, dose response (AID 714); type: functional
Estrogen receptor = target: T2, Estrogen receptor (Homo sapiens, UniProt P03372);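 also: potency for inhibiting coactivator peptide recruitment to the receptor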
T2 sequence (P03372 whole entry): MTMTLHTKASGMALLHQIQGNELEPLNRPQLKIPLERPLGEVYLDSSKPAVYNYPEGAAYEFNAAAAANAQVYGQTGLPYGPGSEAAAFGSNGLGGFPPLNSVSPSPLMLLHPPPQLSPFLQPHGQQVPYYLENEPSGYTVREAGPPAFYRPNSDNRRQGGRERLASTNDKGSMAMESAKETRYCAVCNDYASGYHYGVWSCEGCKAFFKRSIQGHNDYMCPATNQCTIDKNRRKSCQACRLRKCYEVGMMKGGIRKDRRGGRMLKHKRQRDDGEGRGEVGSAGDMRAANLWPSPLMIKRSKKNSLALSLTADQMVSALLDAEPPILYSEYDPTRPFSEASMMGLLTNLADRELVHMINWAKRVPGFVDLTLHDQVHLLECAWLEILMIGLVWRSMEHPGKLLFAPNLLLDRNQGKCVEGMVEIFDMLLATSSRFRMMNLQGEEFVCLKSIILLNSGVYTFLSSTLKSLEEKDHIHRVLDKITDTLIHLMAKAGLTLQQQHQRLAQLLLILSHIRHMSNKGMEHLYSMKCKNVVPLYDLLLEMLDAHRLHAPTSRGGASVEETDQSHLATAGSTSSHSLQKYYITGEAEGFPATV

[9] = M. tuberculosis growth inhibition, HTS (AID 449762); type: functional
[10] = target: Tyrosine-protein phosphatase non-receptor type 7 (Homo sapiens, UniProt P35236); assay: HePTP tyrosine phosphatase activity blockers – biochemical, absorbance, leukemia target, primary screen (AID 521); type: functional
Bcl-2-related protein A1 [11] = target: T3, Bcl-2-related protein A1 (Mus musculus, UniProt Q07440); assay: displacement of Bid BH3 peptide from Bfl-1 – biochemical, fluorescence polarization, FITC-Bid, mouse, primary screen (AID 432)
T3 sequence (Q07440 whole entry): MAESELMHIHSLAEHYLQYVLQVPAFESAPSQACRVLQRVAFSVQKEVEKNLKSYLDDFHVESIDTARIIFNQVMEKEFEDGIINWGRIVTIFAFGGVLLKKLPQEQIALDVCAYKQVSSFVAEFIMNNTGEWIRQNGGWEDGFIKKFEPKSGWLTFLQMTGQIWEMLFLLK

Bcl-2-related protein A1 [12] = target: T3, Bcl-2-related protein A1; assay: small-molecule antagonists of Bfl-1/BH3 interaction – biochemical, TR-FRET, mouse Bfl-1, confirmation (AID 621);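 also: TR-FRET binding of GST-Bfl-1 to FITC-labelled Bid peptide via terbium antibody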
[13] = target: Protein-tyrosine kinase 2-beta (Homo sapiens, UniProt Q14289);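 also: potency of inhibitors of PYK2 kinase phosphorylation of poly-GT substrate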
[14] = target: Dual specificity protein phosphatase 6 (Rattus norvegicus, UniProt Q64346); assay: inhibition of rat DUSP6 enzyme activity – biochemical, in vitro, primary screen (AID 425)
Chain of Dual specificity protein phosphatase 6 (Q64346 whole entry, the tested form may be a part): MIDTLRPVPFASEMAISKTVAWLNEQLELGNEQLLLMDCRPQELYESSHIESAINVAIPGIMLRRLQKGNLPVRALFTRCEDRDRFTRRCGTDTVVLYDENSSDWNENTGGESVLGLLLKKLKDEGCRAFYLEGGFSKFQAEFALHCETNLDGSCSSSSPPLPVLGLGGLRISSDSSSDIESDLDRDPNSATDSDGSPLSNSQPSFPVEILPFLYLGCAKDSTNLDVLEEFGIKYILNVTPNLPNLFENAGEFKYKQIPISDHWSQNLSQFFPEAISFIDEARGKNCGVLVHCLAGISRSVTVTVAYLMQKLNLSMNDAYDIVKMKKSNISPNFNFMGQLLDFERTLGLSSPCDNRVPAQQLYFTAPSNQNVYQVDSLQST

[15] = target: T4, Carboxy-terminal domain RNA polymerase II polypeptide A small phosphatase 1 (Homo sapiens, UniProt Q9GZU7); assay: CTDSP1 inhibitors, concentration-response, biochemical, absorbance readout, ultra-high-throughput screen actives (AID 540297); type: functional
T4 sequence (Q9GZU7 whole entry): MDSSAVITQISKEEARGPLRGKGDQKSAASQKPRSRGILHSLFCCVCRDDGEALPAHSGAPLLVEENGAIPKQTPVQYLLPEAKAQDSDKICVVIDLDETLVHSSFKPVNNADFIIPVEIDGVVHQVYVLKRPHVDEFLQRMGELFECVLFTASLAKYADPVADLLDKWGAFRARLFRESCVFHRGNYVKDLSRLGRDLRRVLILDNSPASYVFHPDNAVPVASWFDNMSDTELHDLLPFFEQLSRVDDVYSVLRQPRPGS

[16] = target: Sphingosine 1-phosphate receptor 2 (Homo sapiens, UniProt O95136); assay: Dose Response Cell-Based Assay for Agonists of the Sphingosine 1-Phosphate Receptor 2 (S1P2): Purchased Analogues. [Related pubchem assays: 1192, 373, 439 ]; type: functional
Chain of Sphingosine 1-phosphate receptor 2 (O95136 whole entry): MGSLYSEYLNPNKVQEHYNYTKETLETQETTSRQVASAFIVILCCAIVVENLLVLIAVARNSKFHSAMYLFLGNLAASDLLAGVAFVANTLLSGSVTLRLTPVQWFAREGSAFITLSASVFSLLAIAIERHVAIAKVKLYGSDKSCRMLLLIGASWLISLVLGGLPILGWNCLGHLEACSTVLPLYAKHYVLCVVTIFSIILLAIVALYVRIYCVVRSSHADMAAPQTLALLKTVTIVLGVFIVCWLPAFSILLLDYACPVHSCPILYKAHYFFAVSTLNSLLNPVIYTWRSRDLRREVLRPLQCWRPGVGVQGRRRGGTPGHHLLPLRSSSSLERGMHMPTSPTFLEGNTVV

[17] = target: Sphingosine 1-phosphate receptor 1 (Homo sapiens, UniProt P21453); assay: Dose Response Cell-Based Assay for Agonists of the Sphingosine 1-Phosphate Receptor 1 (S1P1): Purchased Analogues. [Related pubchem assays: 1192, 373, 439 ]; type: functional
Chain of Sphingosine 1-phosphate receptor 1 (P21453 whole entry): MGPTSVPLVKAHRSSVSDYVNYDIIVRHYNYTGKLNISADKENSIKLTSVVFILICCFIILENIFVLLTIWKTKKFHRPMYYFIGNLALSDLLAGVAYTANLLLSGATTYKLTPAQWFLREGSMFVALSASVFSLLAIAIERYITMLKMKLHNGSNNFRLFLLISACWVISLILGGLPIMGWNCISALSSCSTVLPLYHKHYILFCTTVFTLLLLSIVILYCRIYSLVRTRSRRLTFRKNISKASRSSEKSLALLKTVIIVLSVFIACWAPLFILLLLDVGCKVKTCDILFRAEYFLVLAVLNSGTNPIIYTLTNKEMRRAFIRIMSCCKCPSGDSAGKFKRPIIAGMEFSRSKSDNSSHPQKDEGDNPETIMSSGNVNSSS

[18] = target: Sphingosine 1-phosphate receptor 3 (Homo sapiens, UniProt Q99500); assay: Dose Response Cell-Based Assay for Agonists of the Sphingosine 1-Phosphate Receptor 3 (S1P3): Purchased Analogues. [Related pubchem assays: 373, 439 ]; type: functional
Chain of Sphingosine 1-phosphate receptor 3 (Q99500 whole entry): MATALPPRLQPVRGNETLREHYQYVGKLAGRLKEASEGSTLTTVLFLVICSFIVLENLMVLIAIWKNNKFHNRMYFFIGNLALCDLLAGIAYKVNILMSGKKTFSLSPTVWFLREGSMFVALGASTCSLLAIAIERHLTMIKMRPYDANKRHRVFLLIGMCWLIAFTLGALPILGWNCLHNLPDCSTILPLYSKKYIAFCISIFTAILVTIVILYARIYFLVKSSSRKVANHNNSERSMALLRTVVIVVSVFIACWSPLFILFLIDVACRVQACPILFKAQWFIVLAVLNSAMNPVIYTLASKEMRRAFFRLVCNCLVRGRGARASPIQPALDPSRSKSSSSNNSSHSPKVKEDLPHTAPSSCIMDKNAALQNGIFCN

[19] = target: Peroxisome proliferator-activated receptor gamma/Nuclear receptor corepressor 2 (Homo sapiens, UniProt P37231+Q9Y618); assay: Counterscreen for NR2E3 inverse agonists: TR-FRET-based biochemical high throughput dose response assay to identify inverse agonists of the interaction between peroxisome proliferator-activated receptor gamma (PPARg) and nuclear receptor co-repressor 2 (NCOR2).; type: functional
[20] = target: Photoreceptor-specific nuclear receptor (Homo sapiens, UniProt Q9Y5X4); assay: ligands suppressing NR2E3 nuclear receptor activity – biochemical, TR-FRET, dose response (AID 463256); type: functional
Chain of Photoreceptor-specific nuclear receptor (Q9Y5X4 whole entry): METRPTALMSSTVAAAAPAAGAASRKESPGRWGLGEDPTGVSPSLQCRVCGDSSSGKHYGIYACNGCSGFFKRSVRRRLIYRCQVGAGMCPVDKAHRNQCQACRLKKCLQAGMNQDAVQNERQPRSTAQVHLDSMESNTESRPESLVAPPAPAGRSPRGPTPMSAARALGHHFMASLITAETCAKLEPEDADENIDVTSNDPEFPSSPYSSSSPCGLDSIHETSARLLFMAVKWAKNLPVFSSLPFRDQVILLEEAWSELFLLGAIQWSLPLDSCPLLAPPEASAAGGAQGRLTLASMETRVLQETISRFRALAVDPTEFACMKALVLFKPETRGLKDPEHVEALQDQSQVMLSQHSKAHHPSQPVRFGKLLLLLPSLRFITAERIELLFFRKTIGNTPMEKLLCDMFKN

[21] = target: Tyrosine-protein phosphatase non-receptor type 11 (Homo sapiens, UniProt Q06124); assay: PTPN11 enzyme inhibitors – biochemical, selectivity assay for STEP inhibitor project, dose response (AID 602367); type: functional; details: read-out: IC50_Mean
[22] = target: Tyrosine-protein phosphatase non-receptor type 5 (Homo sapiens, UniProt P54829); assay: PTPN5 enzyme inhibition – biochemical, fluorescence intensity, uHTS hits, confirmation (AID 602372); type: functional; details: read-out: IC50_Mean
Chain of Tyrosine-protein phosphatase non-receptor type 5 (P54829 whole entry): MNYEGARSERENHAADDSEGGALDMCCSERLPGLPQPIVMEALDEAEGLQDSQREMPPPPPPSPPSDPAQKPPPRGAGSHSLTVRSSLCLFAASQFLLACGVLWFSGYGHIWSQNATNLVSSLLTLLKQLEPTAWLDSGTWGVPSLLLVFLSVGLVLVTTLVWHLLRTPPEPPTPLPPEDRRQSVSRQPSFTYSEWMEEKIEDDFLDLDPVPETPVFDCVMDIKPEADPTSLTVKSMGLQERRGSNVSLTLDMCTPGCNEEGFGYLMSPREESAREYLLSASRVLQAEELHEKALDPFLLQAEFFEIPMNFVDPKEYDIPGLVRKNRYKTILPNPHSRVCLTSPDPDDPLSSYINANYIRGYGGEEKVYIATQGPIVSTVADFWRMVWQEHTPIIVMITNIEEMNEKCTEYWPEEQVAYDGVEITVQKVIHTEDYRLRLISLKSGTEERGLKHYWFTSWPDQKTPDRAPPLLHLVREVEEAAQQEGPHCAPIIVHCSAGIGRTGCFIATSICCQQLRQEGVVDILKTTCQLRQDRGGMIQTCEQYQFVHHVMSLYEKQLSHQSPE

[23] = target: Dual specificity protein phosphatase 3 (Homo sapiens, UniProt P51452); assay: VHR phosphatase inhibition, dose response, selectivity assay for STEP inhibitor project, biochemical (AID 602374); type: functional; details: read-out: IC50_Mean
Chain of Dual specificity protein phosphatase 3 (P51452 whole entry): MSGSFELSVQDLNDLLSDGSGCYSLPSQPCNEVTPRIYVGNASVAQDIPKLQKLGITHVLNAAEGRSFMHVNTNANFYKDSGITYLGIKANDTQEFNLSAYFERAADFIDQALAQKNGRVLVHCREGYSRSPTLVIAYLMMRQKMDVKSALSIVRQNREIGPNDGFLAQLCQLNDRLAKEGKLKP

[24] = target: Tyrosine-protein phosphatase non-receptor type 22 (Homo sapiens, UniProt Q9Y2R2); assay: lymphoid phosphatase LYP inhibitors – biochemical, selectivity assay for STEP inhibitor project, dose response (AID 624241); type: functional
Bcl-2-like protein 10 = target: T5, Bcl-2-like protein 10 (Homo sapiens, UniProt Q9HD36); assay: Bcl-B/TR3 peptide binding disruption – biochemical, fluorescence polarization, FITC-TR3 peptide, selectivity assay for Bfl-1 inhibitor project, primary screen (AID 748);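 also: fluorescence polarization from a fluorescein-labelled TR3 peptide binding purified Bcl-B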
T5 sequence (Q9HD36 whole entry): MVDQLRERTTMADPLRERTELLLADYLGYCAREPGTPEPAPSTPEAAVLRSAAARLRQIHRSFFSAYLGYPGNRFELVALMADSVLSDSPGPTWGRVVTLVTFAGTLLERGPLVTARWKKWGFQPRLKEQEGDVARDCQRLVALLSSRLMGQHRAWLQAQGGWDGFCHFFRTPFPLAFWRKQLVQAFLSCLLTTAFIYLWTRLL

Estrogen receptor beta [25] = target: T6, Estrogen receptor beta (Homo sapiens, UniProt Q92731);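 also: recombinant ER-beta bound to coactivator SRC1 peptide in presence of estradiol agonist; inhibitors block coactivator peptide binding and lower the FRET signal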
T6 sequence (Q92731 whole entry): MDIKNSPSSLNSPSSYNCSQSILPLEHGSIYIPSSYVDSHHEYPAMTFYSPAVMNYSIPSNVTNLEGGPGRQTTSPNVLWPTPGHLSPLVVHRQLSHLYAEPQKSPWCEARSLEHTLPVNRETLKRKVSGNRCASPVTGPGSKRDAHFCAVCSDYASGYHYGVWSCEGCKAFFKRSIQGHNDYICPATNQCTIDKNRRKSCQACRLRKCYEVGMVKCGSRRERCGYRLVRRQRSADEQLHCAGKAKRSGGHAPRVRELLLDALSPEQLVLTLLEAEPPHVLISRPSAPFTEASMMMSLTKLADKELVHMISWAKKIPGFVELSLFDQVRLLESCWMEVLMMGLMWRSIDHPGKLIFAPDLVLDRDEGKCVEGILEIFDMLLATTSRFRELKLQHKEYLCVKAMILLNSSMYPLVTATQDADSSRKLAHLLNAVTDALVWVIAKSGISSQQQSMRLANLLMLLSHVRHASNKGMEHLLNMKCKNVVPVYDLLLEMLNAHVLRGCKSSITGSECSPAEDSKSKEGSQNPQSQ

Estrogen receptor beta [26] = target: T6, Estrogen receptor beta; assay: blockers of SRC-3 recruitment to ERβ – biochemical, ELISA, streptavidin-HRP readout, orthogonal assay, confirmation (AID 1060)

In the case of COc1ccc(C2SCC(=O)N2c2c(C)n(C)n(-c3ccccc3)c2=O)cc1OC (stereo not drawn), the EC50 [1] is reported as > 120 µM (not active).
In the case of C=CCNC(=O)/C(C#N)=C/c1cn(-c2ccccc2)nc1-c1cccs1, the EC50 (Galanin receptor type 2) is reported as 45.4 µM (not active).
In the case of O=[N+]([O-])c1cc(-c2nc(-c3ccncc3)no2)cc([N+](=O)[O-])c1, the CC50 [2] is reported as > 40 µM (active), the EC50 [3] is reported as 2.67 µM (active) and the CC50 [4] is reported as 37.5 µM (active). For the same compound, the CC50 [5] was > 20 µM (active) and the IC50 (cells) was 3.13 µM (active).
In the case of Nc1ccc(S(=O)(=O)Nc2nc3ccccc3o2)cc1, the IC50 [6] is reported as > 109 µM (not active), the IC50 (Bcl-2-like protein 1) is reported as > 109 µM (not active) and the AC50 (Caspase-6) is reported as 42.1 µM (active).
With O=C(NCc1ccco1)c1cccc(-n2sc3ccccc3c2=O)c1 the IC50 [7] was 10.5 µM (active).
In the case of Cc1sc(NC(=O)CSc2nnc(-c3ccc(F)cc3)o2)c(C#N)c1C, the IC50 [8] is reported as 10.5 µM (active) and the IC50 (Estrogen receptor) is reported as > 50 µM (not active).
With Cc1cc(/C=C(/C#N)c2cccc(F)c2)c(C)n1-c1cccnc1 the IC50 [9] was > 100 µM (active).
In the case of COc1ccc2nc(O)c(-c3noc(-c4ccccc4)n3)cc2c1, the IC50 [10] is reported as 4.23 µM (active), the IC50 (Bcl-2-related protein A1 [11]) is reported as 24.6 µM (active) and the IC50 (Bcl-2-related protein A1 [12]) is reported as > 100 µM (not active). The IC50 [13] was > 2.57 µM (not active), the IC50 [14] was > 10 µM (not active) and the IC50 [15] was 7.01 µM (active).
For Cc1ccc(-c2cc(C(=O)N(C)C3CCCCC3)no2)cc1, the EC50 [16] was > 10 µM (not active), the EC50 [17] was 0.724 µM (active) and the EC50 [18] was > 50 µM (not active).
In the case of COc1ccc(-c2ccc(NC(=O)c3ccc(Br)o3)cc2)nn1, the IC50 [19] is reported as 4.7 µM (active), the IC50 [20] is reported as 3.38 µM (active) and the IC50 [21] is reported as 4.3 µM (active). For the same compound, the IC50 [22] was 18 µM (active), the IC50 [23] was 6.6 µM (active) and the IC50 [24] was 74.1 µM (inactive).
For Cc1ccc(S(=O)(=O)N2CCCCC2)cc1C(=O)Nc1nc[nH]n1, the IC50 (Bcl-2-like protein 10) was 27.7 µM (active), the IC50 (Estrogen receptor) was > 50 µM (not active) and the IC50 (Estrogen receptor beta [25]) was 8.84 µM (active). The IC50 (Estrogen receptor beta [26]) was > 109 µM (not active).
